Results from patent US10383948B2, “Anti-cMet antibody drug conjugates and methods for their use” (AbbVie Inc., priority 2016, dated 2019).

How the values were obtained:
NSCLC = assay: Phase 1b combination with erlotinib; assay type: in vivo, human; conditions: ABBV-399 2.7 mg/kg once every 21 days plus erlotinib 150 mg orally every day
Source text: ABBV-399 will be combined with standard doses of erlotinib, cetuximab, bevacizumab or nivolumab starting at an ABBV-399 dose level below the MTD or MAD and then escalated no higher than MTD or MAD determined in the monotherapy dose-escalation/expansion. Dose limiting toxicity definitions will apply to the dose-escalation portion of each Combination.

U87MG = assay: Cytotoxicity assay (CellTiter-Glo, 6 days); assay type: cell-based, human; conditions: U-87MG glioblastoma; relative to untreated control at ≤1 μg/mL in a six day proliferation
Method: (§1) Tumor cells were plated at 2000-5000 cells/well in 180 μL growth medium containing 10% FBS in 96-well plates, and cultured at 37° C. in a humidified incubator with 5% C02. The following day, titrations of antibodies or ADCs in 20 μL were added and cells were incubated for 6 days. Cell viability was determined using a CellTiter-Glo Luminescent Cell Viability Assay (Promega) according to the manufacturer's instructions. A non-binding, irrelevant negative control ADC conjugated to MMAE was also included in all assays to confirm that cell killing was antigen dependent.
(§2) Tumor cells were plated at 2000-5000 cells/well in 180 μL growth medium containing 10% FBS in 96-well plates, and cultured at 37° C. in a humidified incubator with 5% C02. The following day, titrations of ADCs in 20 μL were added and cells were incubated for 6 days. Cell viability was determined using a CellTiter-Glo Luminescent Cell Viability Assay (Promega) according to the manufacturer's instructions. A non-binding, irrelevant negative control ADC conjugated to MMAE was also included in all assays to confirm that cell killing was antigen-dependent.

A549 = assay: Cytotoxicity assay (CellTiter-Glo, 6 days); assay type: cell-based, human; conditions: A549 lung cancer; relative to untreated control at ≤1 μg/mL in a six day proliferation
Method: as §1, §2

NCI-H1650 = assay: Cytotoxicity assay (CellTiter-Glo, 6 days); assay type: cell-based, human; conditions: NCI-H1650 lung cancer; relative to untreated control at ≤1 μg/mL in a six day proliferation
Method: as §1, §2

Hs746T = assay: Cytotoxicity assay (CellTiter-Glo, 6 days); assay type: cell-based, human
Method: as §1, §2

KP4 = assay: Cytotoxicity assay (CellTiter-Glo, 6 days); assay type: cell-based, human; conditions: KP4 pancreatic cancer; relative to untreated control at ≤1 μg/mL in a six day proliferation
Method: as §1, §2

EBC-1 = assay: Cytotoxicity assay (CellTiter-Glo, 6 days); assay type: cell-based, human; conditions: EBC-1 lung cancer; relative to untreated control at ≤1 μg/mL in a six day proliferation
Method: as §1, §2

NCI-H1573 = assay: Cytotoxicity assay (CellTiter-Glo, 6 days); assay type: cell-based, human; conditions: NCI-H1573 lung cancer
Method: as §1, §2

SW48 = assay: Cytotoxicity assay (CellTiter-Glo, 6 days); assay type: cell-based, human; conditions: SW48 colorectal cancer; relative to untreated control at ≤1 μg/mL in a six day proliferation
Method: as §1, §2

[1] = test system: Hs746T ABT-700R xenografts; assay: ABT-700-refractory xenograft efficacy; assay type: in vivo, mice
[2] = test system: HMEC (mammary epithelial); assay: Cytotoxicity assay (CellTiter-Glo, 6 days); assay type: cell-based; conditions: HMEC (mammary epithelial) non-tumor; relative to untreated control at ≤1 μg/mL in a six day proliferation
Method: as §1

[3] = test system: NHDF (dermal fibroblasts); assay: Cytotoxicity assay (CellTiter-Glo, 6 days); assay type: cell-based; conditions: NHDF (dermal fibroblasts) non-tumor; relative to untreated control at ≤1 μg/mL in a six day proliferation
Method: as §1

[4] = test system: PrEC (prostate epithelial); assay: Cytotoxicity assay (CellTiter-Glo, 6 days); assay type: cell-based; conditions: PrEC (prostate epithelial) non-tumor; relative to untreated control at ≤1 μg/mL in a six day proliferation
Method: as §1

[5] = test system: HUVEC (vascular endothelial); assay: Cytotoxicity assay (CellTiter-Glo, 6 days); assay type: cell-based; conditions: HUVEC (vascular endothelial) non-tumor; relative to untreated control at ≤1 μg/mL in a six day proliferation
Method: as §1

SNU-5 = assay: Cytotoxicity assay (CellTiter-Glo, 6 days); assay type: cell-based, human
Method: as §1

MCF-7 = assay: Cytotoxicity assay (CellTiter-Glo, 6 days); assay type: cell-based, human; conditions: MCF-7 breast cancer; relative to untreated control at ≤1 μg/mL in a six day proliferation
Method: as §1

HT-29 = assay: Cytotoxicity assay (CellTiter-Glo, 6 days); assay type: cell-based, human; conditions: HT-29 colorectal cancer
Method: as §1

MDA-MB-231 = assay: Cytotoxicity assay (CellTiter-Glo, 6 days); assay type: cell-based, human; conditions: MDA-MB-231 breast cancer; relative to untreated control at ≤1 μg/mL in a six day proliferation
Method: as §1

IM-95 = assay: Cytotoxicity assay (CellTiter-Glo, 6 days); assay type: cell-based, human; conditions: IM-95 gastric cancer
Method: as §1

SNU-620 = assay: Cytotoxicity assay (CellTiter-Glo, 6 days); assay type: cell-based, human; conditions: SNU-620 gastric cancer
Method: as §1

[6] = test system: EBC-1 ABT-700R xenograft tumors; assay: ABT-700-refractory xenograft efficacy; assay type: in vivo, mice; conditions: EBC-1, ABT-700 followed by ABBV-399; FIG. 12C
[7] = relative to untreated control at ≤1 μg/mL in a six day proliferation
[8] = read-out: ABBV-399 IC50, cell proliferation assay, Table 7B

ABBV-399: ADC comprised of the cMet targeting antibody ABT-700 conjugated to MMAE through a valine citrulline (vc) linker
patients with partial response (NSCLC): 2/6
patients with progressive disease (new lesions) (NSCLC): 1/6
Maximal Killing (U87MG): 30%
Maximal Killing (A549): 22%
Maximal Killing (NCI-H1650): 13%
Maximal Killing (Hs746T; Hs746T gastric cancer, relative to untreated control at ≤1 μg/mL in a six day proliferation): 87%
inhibition of proliferation (Hs746T; MET-amplified Hs746T gastric cancer cells, FIG. 4): inhibited proliferation
Maximal Killing (KP4): 53%
Maximal Killing (EBC-1): 96%
Maximal Killing (NCI-H1573; [7]): 18%
IC50 (NCI-H1573; [8]): 18 nM
Maximal Killing (SW48): 0%
tumor response ([1]; Hs746T ABT-700R of approximately 300 mm^3): complete tumor regression
tumor response ([1]; refractory tumors at mean cohort size approximately 1,000 mm^3, followed by eventual outgrowth): tumor regression
Maximal Killing [2]: 0%
Maximal Killing [3]: 0%
Maximal Killing [4]: 0%
Maximal Killing [5]: 6%
inhibition of proliferation (SNU-5; MET-amplified SNU-5 gastric cancer cells, FIG. 4): inhibited proliferation
Maximal Killing (SNU-5; SNU-5 gastric cancer, relative to untreated control at ≤1 μg/mL in a six day proliferation): 85%
IC50 (SNU-5; read-out: ABBV-399 IC50, SNU-5 gastric cancer, cell proliferation assay, Table 7B): 0.28 nM
Maximal Killing (MCF-7): 0%
Maximal Killing (HT-29; [7]): 70%
IC50 (HT-29; [8]): 9 nM
Maximal Killing (MDA-MB-231): 0%
Maximal Killing (IM-95; [7]): 53%
IC50 (IM-95; [8]): 1.7 nM
Maximal Killing (SNU-620; [7]): 80%
IC50 (SNU-620; [8]): 0.17 nM
tumor response [6]: remained sensitive
